From patent US9526802B2, “Nucleic acid complexes” (Purdue Research Foundation, priority 2012, dated 2016)

Key:
CHO-GFP cells = test: Cell viability assay (1), MTS; assay type: cell-based
Description: FIG. 3 depicts cell viabilities of 1, 2, 3, Chol-PVA-PEG and Chol-PVA-PEG+1 host:guest pendant polymer complexes in CHO-GFP cells using 25 kD bPEI as control.
The cytotoxicity of the amino-CD derivatives in comparison with bPEI (25 kDa) was evaluated using the MTS assay in CHO-GFP cell lines. The relative cell viabilities were measured as a function of amine densities of the polymers. […] After 24 h, culture media were replaced with serum-free culture media containing increasing amine concentrations of amino-CD, polymer and the polymer:CD complexes and the cells were incubated for 24 h. After 24 h, 15 μl of MTS reagent was added to each well and incubated for 2 h. […] All experiments were conducted for three samples and averaged. […] In this study, LD50 was the concentration of a gene carrier at which the relative cell viability decreased to 50%.

pDNA = test: Gel shift assay; assay type: binding; settings: various N:P ratios, compared among 4, 5, 6
Description: The complexation ability of the systems was studied by gel shift assay. Agarose gels (1% w/v) containing ethidium bromide were made in 1× TE buffer. Transfection complexes were loaded onto the gel at various N:P ratios and 200 ng of DNA added to the wells. The gels were run at 50 V for about 1 h and visualized.
Also, in the absence of polymer, higher N:P ratios were used to condense pDNA effectively. […] This improved condensation capability of 6 relative to 4 and 5 can be attributed to the availability of both the nitrogens on the hydrazine moiety for interaction with pDNA.

CNCCN(C)C[C@H]1O[C@@H]2O[C@H]3[C@H](O)[C@@H](O)[C@@H](O[C@H]4[C@H](O)[C@@H](O)[C@@H](O[C@H]5[C@H](O)[C@@H](O)[C@@H](O[C@H]6[C@H](O)[C@@H](O)[C@@H](O[C@H]7[C@H](O)[C@@H](O)[C@@H](O[C@H]8[C@H](O)[C@@H](O)[C@@H](O[C@H]1[C@H](O)[C@H]2O)O[C@@H]8CO)O[C@@H]7CO)O[C@@H]6CO)O[C@@H]5CO)O[C@@H]4CO)O[C@@H]3CO [Compound 2, Mono-6-(N,N′-dimethylethane-1,2-diamine)-6-deoxy-β-cyclodextrin] gave an LD50 (CHO-GFP cells) of over 10 mM.
In the case of NNC[C@H]1O[C@@H]2O[C@H]3[C@H](O)[C@@H](O)[C@@H](O[C@H]4[C@H](O)[C@@H](O)[C@@H](O[C@H]5[C@H](O)[C@@H](O)[C@@H](O[C@H]6[C@H](O)[C@@H](O)[C@@H](O[C@H]7[C@H](O)[C@@H](O)[C@@H](O[C@H]8[C@H](O)[C@@H](O)[C@@H](O[C@H]1[C@H](O)[C@H]2O)O[C@@H]8CNN)O[C@@H]7CNN)O[C@@H]6CNN)O[C@@H]5CNN)O[C@@H]4CNN)O[C@@H]3CNN [Compound 6, hepta-6-hydrazyl-β-CD], the “capacity for condensing pDNA” value (pDNA) is reported as “greatest capacity for condensing pDNA”.
